The target in series [1] is hERG channels (Homo sapiens (Human), UniProt Q12809). As to the kind of experiment: hERG assay, automated QPatch procedure. In kind it is cell-based. The text has this: Only stable cells with recording parameters above threshold were allowed to enter the drug application procedure.
In series [2] the target is PI3K (p110α/p85α) (h) (Homo sapiens (Human), UniProt P42336). Briefly: PI3K (p110α/p85α) (h) non-radioactive HTRF kinase assay. In kind it is biochemical. As to the method: (§1) PI3K (p110α/p85α) (h) is incubated in assay buffer containing 10 μM phosphatidylinositol 4,5-bisphosphate and MgATP (concentration as required). The reaction is initiated by the addition of the ATP solution. After incubation for 30 minutes at room temperature, the reaction is stopped by the addition of stop solution containing EDTA and biotinylated phosphatidylinositol-3,4,5-trisphosphate. Finally, detection buffer is added, which contains europium-labelled anti-GST monoclonal antibody, GST-tagged GRP1 PH domain and streptavidin allophycocyanin. The plate is then read in timeresolved fluorescence mode and the homogenous time-resolved fluorescence (HTRF) signal is determined according to the formula HTRF=10000×(Em665 nm/Em620 nm).
Chain of PI3K (p110α/p85α) (h) (P42336 whole entry, the tested form may be a part): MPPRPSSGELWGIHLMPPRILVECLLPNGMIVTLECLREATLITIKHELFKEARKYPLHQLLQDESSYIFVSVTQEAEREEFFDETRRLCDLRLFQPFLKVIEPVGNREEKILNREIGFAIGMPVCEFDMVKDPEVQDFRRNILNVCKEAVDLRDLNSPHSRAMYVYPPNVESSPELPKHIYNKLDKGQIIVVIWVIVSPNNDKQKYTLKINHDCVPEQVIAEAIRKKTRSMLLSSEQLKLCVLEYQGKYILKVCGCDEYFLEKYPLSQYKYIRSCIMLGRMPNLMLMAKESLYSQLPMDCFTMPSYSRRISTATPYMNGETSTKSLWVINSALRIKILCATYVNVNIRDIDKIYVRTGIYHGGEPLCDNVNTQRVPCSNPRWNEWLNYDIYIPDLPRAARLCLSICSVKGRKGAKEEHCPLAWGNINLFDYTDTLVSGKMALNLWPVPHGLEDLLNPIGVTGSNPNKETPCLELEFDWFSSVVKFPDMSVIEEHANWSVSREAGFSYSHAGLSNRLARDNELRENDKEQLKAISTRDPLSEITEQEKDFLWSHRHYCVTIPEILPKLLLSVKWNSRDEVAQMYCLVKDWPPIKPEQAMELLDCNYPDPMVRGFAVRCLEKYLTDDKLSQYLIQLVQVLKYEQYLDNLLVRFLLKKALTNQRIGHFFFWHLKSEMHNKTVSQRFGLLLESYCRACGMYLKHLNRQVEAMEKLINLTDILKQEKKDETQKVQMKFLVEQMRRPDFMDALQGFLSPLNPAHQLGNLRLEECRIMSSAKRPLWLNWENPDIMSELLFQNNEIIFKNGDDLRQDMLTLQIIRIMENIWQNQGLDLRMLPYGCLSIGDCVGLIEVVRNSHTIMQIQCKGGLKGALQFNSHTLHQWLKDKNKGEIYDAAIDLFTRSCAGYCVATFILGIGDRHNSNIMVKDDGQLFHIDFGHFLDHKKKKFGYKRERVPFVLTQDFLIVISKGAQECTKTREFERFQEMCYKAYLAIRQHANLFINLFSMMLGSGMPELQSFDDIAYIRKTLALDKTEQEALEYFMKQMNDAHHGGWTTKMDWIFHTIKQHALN
Chain of PI3K (p110α/p85α) (h) (P27986 whole entry partner, the tested form may be a part): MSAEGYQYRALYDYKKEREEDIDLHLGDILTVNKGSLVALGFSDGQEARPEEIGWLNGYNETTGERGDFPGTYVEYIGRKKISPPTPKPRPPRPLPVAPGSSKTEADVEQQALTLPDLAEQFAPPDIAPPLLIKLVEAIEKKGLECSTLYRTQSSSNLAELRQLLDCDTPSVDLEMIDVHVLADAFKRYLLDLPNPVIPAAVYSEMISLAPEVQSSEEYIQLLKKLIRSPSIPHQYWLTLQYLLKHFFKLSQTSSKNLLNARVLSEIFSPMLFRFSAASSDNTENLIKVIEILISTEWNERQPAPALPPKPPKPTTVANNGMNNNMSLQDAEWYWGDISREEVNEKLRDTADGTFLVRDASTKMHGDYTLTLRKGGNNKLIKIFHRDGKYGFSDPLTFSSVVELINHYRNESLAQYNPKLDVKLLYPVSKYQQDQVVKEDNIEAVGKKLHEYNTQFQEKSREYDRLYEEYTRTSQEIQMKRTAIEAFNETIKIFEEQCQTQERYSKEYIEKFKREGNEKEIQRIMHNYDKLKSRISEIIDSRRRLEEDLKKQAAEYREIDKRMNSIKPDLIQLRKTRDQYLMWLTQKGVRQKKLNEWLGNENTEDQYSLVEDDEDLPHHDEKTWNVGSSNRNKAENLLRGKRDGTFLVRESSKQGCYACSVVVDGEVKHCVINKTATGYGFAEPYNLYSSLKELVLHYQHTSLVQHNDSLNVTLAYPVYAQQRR
(§2) The kinase assays described herein were performed at Millipore UK Ltd, Dundee Technology Park, Dundee DD2 1SW, UK.
(TR-FRET usually uses a lanthanide donor and a delayed reading to cut background.)

For series [3], the system named is SU-DHL-10. As to the kind of experiment: Cell proliferation assay (CTG), SU-DHL-10. The following applies: Homo sapiens, SU-DHL10, 72 h. In kind it is cell-based. The procedure: (§3) • 1. Harvest cells during the logarithmic growth period and count cell number using Count-star. • 2. Adjust cell concentrations to […] with respective culture medium. • 3. Add 90 μL cell suspensions to 96-well plates with the final cell density of 1×10^4 cells/well. (cell concentration will be adjusted according to the data base or density optimization assay.) • 4. The next day, prepare 10× solution (Top working concentration: 10 μM of test article in media with 3.16-fold serial dilutions to achieve 9 dose levels). • 5. Dispense 10 μL drug solution of both test article and reference control in each well (duplicate for each drug concentration) of the plate.

Series [4] relates to WSU-NHL. Briefly: Cell proliferation assay (CTG), WSU-NHL. In kind it is cell-based. The following applies: Homo sapiens, 72 h. The procedure:
as §3

For series [5], the system named is PI3K-α (SKOV3). As to the kind of experiment: p-AKT HTRF assay, PI3K-α in SKOV3 cells. In kind it is cell-based. The following applies: Homo sapiens, SK-OV-3. As to the method:
Cells were incubated at 37° C. in a 5% CO2 atmosphere overnight. […] Medium was then aspirated and 50 μL/well of lysis buffer was added. Plates were shaked for 45 minutes at room temperature and then 16 ul/well of lysate was transferred to 384-well plate. 4 ul/well of premixed antibody was added to the wells. The plate was centrifuged at 1000 rpm at RT for 1 minute and then incubated for 4 hours at 22° C., and Phospho-AKT (ser473) Kit was used for detection.

The target in series [6] is PI3K (p120γ) (h) (Homo sapiens (Human), UniProt P48736). Briefly: PI3K (p120γ) (h) non-radioactive HTRF kinase assay. In kind it is biochemical. The procedure:
as §1, with “(p120γ)” for “(p110α/p85α)”, “phosphatidylinositol-4, 5-bisphosphate” for “phosphatidylinositol 4,5-bisphosphate”, “MgATP mix.” for “ATP solution.”, “streptavidin-allophycocyanin.” for “streptavidin allophycocyanin.”
as §2

The target in series [7] is PI3K (p110β/p85α) (h) (Homo sapiens (Human), UniProt P42338). As to the kind of experiment: PI3K (p110β/p85α) (h) non-radioactive HTRF kinase assay. In kind it is biochemical. The procedure: as §1, with “(p110β/p85α)” for “(p110α/p85α)”, “phosphatidylinositol-4,5-bisphosphate” for “phosphatidylinositol 4,5-bisphosphate”, “MgATP mix.” for “ATP solution.”, “streptavidin-allophycocyanin.” for “streptavidin allophycocyanin.”
Chain of PI3K (p110β/p85α) (h) (P42338 whole entry): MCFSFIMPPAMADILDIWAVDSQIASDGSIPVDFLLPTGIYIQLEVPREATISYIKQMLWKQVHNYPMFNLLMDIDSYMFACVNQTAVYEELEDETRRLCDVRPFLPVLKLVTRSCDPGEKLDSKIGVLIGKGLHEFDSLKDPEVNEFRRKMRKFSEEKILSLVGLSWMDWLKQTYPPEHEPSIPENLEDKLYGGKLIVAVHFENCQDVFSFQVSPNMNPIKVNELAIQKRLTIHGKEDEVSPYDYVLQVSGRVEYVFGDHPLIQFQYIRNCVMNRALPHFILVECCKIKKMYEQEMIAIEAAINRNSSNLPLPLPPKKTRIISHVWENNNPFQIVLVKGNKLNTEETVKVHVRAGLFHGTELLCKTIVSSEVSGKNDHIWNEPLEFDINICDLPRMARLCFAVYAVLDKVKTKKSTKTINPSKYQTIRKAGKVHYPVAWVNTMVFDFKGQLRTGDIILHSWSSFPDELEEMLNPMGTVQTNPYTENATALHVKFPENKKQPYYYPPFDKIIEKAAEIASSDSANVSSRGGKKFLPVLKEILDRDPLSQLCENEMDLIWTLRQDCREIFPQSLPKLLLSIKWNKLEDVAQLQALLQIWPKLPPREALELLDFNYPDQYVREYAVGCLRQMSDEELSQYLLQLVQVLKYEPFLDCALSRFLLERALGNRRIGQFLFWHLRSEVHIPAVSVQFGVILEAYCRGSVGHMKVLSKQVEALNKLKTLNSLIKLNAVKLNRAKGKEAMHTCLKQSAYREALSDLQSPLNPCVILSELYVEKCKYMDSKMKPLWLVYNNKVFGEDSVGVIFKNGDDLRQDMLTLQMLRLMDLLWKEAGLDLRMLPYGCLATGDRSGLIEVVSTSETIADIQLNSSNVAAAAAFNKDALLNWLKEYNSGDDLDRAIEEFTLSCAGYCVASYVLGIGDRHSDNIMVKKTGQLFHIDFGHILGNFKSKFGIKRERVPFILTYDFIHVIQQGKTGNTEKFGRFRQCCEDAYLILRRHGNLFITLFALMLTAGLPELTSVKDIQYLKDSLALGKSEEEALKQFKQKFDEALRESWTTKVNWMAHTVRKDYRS
Chain of PI3K (p110β/p85α) (h) (P27986 whole entry partner): as the sequence (P27986 whole entry partner, the tested form may be a part) above
as §2

Series [8] concerns KARPAS-422. As to the kind of experiment: Cell proliferation assay (CTG), KARPAS-422. In kind it is cell-based. The following applies: Homo sapiens, 72 h. The procedure:
as §3

Series [9] is described as follows: Compound stability in rat liver microsomes. In kind it is in vitro ADME. The settings on record: pH 7.4. The procedure, abridged: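 Compounds (5 μM, 0.05% DMSO) incubated in duplicate with liver microsomes (0.5 mg protein/mL) and 1.0 mM NADPH in 100 mM phosphate buffer pH 7.4 at 37 °C, sampled 0–60 min. Remaining compound measured by LC/MS/MS, expressed as percent of zero-time control; denatured-microsome and dextromethorphan controls included.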
For orientation: Liver microsomes are vesicles of endoplasmic reticulum, rich in cytochrome P450 enzymes.

Series [10] concerns the target PI3K (p110δ/p85α) (h) (Homo sapiens (Human), UniProt O00329). As to the kind of experiment: PI3K (p110δ/p85α) (h) non-radioactive HTRF kinase assay. In kind it is biochemical. As to the method: as §1, with “(p110δ/p85α)” for “(p110α/p85α)”, “phosphatidylinositol-4, 5-bisphosphate” for “phosphatidylinositol 4,5-bisphosphate”, “MgATP mix.” for “ATP solution.”, “streptavidin-allophycocyanin.” for “streptavidin allophycocyanin.”
as §2

Chain of PI3K (p110δ/p85α) (h) (O00329 whole entry): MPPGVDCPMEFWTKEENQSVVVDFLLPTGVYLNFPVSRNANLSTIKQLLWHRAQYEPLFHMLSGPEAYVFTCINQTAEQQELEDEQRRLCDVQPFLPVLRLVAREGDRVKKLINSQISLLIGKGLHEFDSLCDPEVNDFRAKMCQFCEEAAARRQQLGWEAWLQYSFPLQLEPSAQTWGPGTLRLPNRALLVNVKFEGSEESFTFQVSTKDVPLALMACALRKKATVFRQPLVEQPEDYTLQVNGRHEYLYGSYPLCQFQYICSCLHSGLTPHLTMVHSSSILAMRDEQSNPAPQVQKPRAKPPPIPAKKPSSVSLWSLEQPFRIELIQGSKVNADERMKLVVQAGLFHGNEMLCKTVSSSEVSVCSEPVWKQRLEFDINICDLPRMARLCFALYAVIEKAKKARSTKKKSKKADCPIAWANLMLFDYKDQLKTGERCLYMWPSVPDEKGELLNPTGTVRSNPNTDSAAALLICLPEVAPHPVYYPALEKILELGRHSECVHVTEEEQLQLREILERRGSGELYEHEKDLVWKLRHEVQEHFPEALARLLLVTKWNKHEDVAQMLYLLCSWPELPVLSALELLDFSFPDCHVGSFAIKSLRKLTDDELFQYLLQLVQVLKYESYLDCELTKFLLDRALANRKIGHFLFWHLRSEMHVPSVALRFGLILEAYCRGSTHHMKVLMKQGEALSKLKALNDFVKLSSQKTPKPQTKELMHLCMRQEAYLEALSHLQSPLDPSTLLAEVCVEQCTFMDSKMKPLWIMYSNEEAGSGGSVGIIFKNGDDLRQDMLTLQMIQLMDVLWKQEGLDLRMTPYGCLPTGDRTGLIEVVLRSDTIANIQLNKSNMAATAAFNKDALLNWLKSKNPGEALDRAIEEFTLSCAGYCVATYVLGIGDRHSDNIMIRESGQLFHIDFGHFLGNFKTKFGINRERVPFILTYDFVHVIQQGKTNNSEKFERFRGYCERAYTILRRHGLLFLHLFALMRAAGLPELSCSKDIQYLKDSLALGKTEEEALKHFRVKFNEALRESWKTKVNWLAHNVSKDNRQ
Chain of PI3K (p110δ/p85α) (h) (P27986 whole entry partner): as the sequence (P27986 whole entry partner, the tested form may be a part) above
Chain of PI3K (p120γ) (h) (P48736 whole entry): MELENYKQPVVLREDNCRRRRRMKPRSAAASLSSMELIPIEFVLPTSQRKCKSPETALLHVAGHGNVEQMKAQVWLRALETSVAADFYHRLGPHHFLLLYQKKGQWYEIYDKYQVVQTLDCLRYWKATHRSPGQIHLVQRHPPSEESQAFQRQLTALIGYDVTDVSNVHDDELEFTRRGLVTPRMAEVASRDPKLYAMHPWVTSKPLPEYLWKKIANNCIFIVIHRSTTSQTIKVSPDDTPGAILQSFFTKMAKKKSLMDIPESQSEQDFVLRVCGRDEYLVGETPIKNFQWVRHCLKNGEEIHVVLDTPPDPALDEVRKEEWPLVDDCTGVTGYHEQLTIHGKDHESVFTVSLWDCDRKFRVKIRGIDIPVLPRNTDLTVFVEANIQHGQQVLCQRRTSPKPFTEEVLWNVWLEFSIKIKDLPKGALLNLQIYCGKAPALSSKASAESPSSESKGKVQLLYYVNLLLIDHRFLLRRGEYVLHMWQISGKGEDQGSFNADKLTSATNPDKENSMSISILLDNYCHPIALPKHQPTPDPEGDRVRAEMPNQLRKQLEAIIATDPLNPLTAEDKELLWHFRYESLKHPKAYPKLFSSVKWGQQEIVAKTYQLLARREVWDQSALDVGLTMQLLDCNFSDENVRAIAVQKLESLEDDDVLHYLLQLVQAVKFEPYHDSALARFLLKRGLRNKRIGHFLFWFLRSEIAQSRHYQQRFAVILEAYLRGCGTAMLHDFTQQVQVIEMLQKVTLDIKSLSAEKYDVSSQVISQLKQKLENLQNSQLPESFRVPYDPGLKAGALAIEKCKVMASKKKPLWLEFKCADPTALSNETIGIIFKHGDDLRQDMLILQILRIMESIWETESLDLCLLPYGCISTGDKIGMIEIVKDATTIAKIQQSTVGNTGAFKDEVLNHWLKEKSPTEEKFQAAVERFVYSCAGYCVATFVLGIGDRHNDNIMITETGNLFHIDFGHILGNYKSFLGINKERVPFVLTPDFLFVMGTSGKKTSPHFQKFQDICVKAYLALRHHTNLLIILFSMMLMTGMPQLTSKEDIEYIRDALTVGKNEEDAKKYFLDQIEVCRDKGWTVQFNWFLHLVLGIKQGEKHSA

In general, IC50 refers to the concentration at which inhibition is half-maximal. For orientation: CLint scaled means the capacity of the preparation to metabolise the compound, expressed as a volume cleared per time. In the case of `Cc1noc(-c2c(N)ncnc2N[C@@H](C)c2nc3cccc(C#CCO)c3c(=O)n2-c2ccccc2)n1` [Example 34, (S)-2-(1-((6-amino-5-(3-methyl-1,2,4-oxadiazol-5-yl)pyrimidin-4-yl)amino)ethyl)-5-(3-hydroxyprop-1-yn-1-yl)-3-phenylquinazolin-4(3H)-one], the IC50 in [1] was greater than 30000 nM; in series [2], 770 nM; in series [3], 300 nM; in series [4], 49 nM; in series [5] it was 2600 nM; in series [6] it was 192 nM. The IC50 amounted to 160 nM in series [7], 310 nM in series [8] and 4 nM in series [10]. The CLint scaled at 5 μM in [9] (liver microsomes, in vivo CLint extrapolated from rat liver microsome incubation) was 31 mL/min/kg. Further, the half-life at 5 μM in [9] (rat liver microsomes 0.5 mg protein/mL, compound 5 μM, NADPH, 37° C., read-out: Rat T1/2) amounted to 1.34 h.

The record behind these values is patent US10751339B2, “Substituted aminopyrimidine compounds and methods of use” (SUNSHINE LAKE PHARMA CO., LTD., priority 2018, dated 2020).
